This passage reports IC50 results from US11072634B2, “Inhibitors of transglutaminases” (Zedira GmbH, priority 2016, dated 2021).

In the experiment the target is T1, recombinant human tissue transglutaminase (rhTG2) (Homo sapiens, UniProt P21980).
T1 construct: purchased Zedira 1022 (so in the source); T022)
T1 sequence (P21980 1-687): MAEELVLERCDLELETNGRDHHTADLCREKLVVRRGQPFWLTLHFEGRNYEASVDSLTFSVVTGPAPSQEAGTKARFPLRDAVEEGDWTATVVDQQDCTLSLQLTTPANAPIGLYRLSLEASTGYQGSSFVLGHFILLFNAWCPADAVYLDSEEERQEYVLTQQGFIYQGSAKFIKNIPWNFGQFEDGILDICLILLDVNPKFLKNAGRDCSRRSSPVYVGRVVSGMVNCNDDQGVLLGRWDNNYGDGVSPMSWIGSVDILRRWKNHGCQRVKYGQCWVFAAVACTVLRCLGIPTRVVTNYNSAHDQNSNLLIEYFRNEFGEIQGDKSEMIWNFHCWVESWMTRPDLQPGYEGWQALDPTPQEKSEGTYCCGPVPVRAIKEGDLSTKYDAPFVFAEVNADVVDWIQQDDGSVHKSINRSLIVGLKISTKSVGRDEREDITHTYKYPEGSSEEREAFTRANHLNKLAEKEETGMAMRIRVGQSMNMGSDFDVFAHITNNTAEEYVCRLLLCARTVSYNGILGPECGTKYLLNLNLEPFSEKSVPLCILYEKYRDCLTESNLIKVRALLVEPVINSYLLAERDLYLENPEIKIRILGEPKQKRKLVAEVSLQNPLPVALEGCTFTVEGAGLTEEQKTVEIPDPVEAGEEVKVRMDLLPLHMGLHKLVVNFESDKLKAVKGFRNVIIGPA
Put plainly: Inhibition of rec. human tissue transglutaminase (fluorescence, Abz-APE(CAD-DNP)QEA-OH). The class given is biochemical. As to conditions: Table 2, TG2 inhibitors. As to the method: Method for Inhibition Studies of Rec. Human Tissue Transglutaminase (rhTG2)
250 μg lyophilized His-tagged recombinant human tissue transglutaminase (His6-rhTG2, Zedira product 1022) is reconstituted in H2O (volume depends on original volume before lyophilization) resulting in a buffer containing 10 mM Tris-HCl, 150 mM NaCl, 1 mM EDTA, 5 mM DTT, 189 mg/ml maltodextrin, pH=8.1. The rhTG2 stock solution is diluted in buffer (50 mM Tris-HCl, 7.5 mM CaCl2, 150 mM NaCl, pH=7.4) to give a working solution of 100 U/ml (based on the amine-incorporation activity measured using T036, described below).
A 10 mM inhibitor stock solution is prepared in DMSO, and from this stock solution a serial 1:2-fold dilution series is prepared, also in DMSO. Each of these initial dilutions is subsequently diluted 1:50-fold with buffer (50 mM Tris-HCl, 7.5 mM CaCl2, 150 mM NaCl, pH=7.4) to yield the final working dilutions containing 2% (v/v) DMSO. 15 μl of inhibitor working dilution are added per well of a 96 well microtiter plate. As control, 15 μl of a 2% (v/v) DMSO solution prepared using the buffer mentioned above are added per well.
600 μl of His6-rhTG2 working solution are added to 11.4 ml assay buffer (50 mM Iris-HCl, 7.5 mM CaCl2, 150 mM NaCl, 5 mM DTI, 13.4 mM glycine methylester, 50 μM Abz-APE(CAD-DNP)QEA-OH, (Zedira product A102; patent No.: EP 1781807B1), pH=7.4). From this master-mix solution, 285 μl are added per well containing the inhibitor. Increase in fluorescence is measured using λex=313 nm and λem=418 nm at 37° C. for 20 min. A slope of the increase in fluorescence between 10 and 20 min is calculated for determination of the IC50 value (inhibitor concentration at which 50% of the initial TG2 activity is blocked).
Analysis of enzymatic activity is performed by calculation of the slope of an increase in fluorescence intensity. IC50 values are calculated by plotting the enzymatic activity (as percentage from control containing 2% DMSO instead of inhibitor) against the inhibitor concentration. IC50 is defined as the inhibitor concentration blocking 50%) of initial enzyme activity.
As to `CCC(CC)CNC(=O)Cn1cc(Br)cc(NC(=O)[C@H](CCC(=O)C(=O)NC)NC(=O)c2cncn2C)c1=O` [Compound E46, (S)—N1-(5-bromo-1-(2-(2-ethylbutylamino)-2-oxoethyl)-2-oxo-1,2-dihydropyridin-3-yl)-N6-methyl-2-(1-methyl-1H-imidazole-5-carboxamido)-5-oxohexanediamide], the IC50 amounted to 95 nM. As to `CCC(CC)CNC(=O)Cn1cc(C(F)(F)F)cc(NC(=O)[C@H](CCC(=O)C(=O)NC)NC(=O)c2cncn2C)c1=O` [Compound E47, (S)—N1-(1-(2-(2-ethylbutylamino)-2-oxoethyl)-2-oxo-5-(trifluoromethyl)-1,2-dihydropyridin-3-yl)-N6-methyl-2-(1-methyl-1H-imidazole-5-carboxamido)-5-oxohexanediamide], the 50% inhibitory concentration (IC50) was 80 nM. Take `CCN(CC)C(=O)Cn1cccc(NC(=O)[C@H](CCC(=O)C(=O)NC)NC(=O)c2cncn2C)c1=O` [Compound E50, (S)—N1-(1-(2-(diethylamino)-2-oxoethyl)-2-oxo-1,2-dihydropyridin-3-yl)-N6-methyl-2-(1-methyl-1H-imidazole-5-carboxamido)-5-oxohexanediamide]: the IC50 was determined as 300 nM. Regarding `CNC(=O)C(=O)CC[C@H](NC(=O)c1cncn1C)C(=O)Nc1cccn(CC(=O)NS(C)(=O)=O)c1=O` [Compound E51, (S)—N1-methyl-5-(1-methyl-1H-imidazole-5-carboxamido)-N6-(1-(2-(methylsulfonamido)-2-oxoethyl)-2-oxo-1,2-dihydropyridin-3-yl)-2-oxohexanediamide], the concentration for half-maximal inhibition (IC50) was determined as 760 nM. Regarding `CCOC(=O)Cn1cccc(NC(=O)[C@H](CCC(=O)C(=O)NC)NC(=O)c2cncn2C)c1=O` [Compound E52, (S)-ethyl 2-(3-(2-(1-methyl-1H-imidazole-5-carboxamido)-6-(methylamino)-5,6-dioxohexanamido)-2-oxopyridin-1(2H)-yl)acetate], the IC50 came out at 500 nM. As for `CNC(=O)C(=O)CC[C@H](NC(=O)c1cncn1C)C(=O)Nc1cccn(CC(=O)OCCOC)c1=O` [Compound E53, (S)-2-methoxyethyl 2-(3-(2-(1-methyl-1H-imidazole-5-carboxamido)-6-(methylamino)-5,6-dioxohexanamido)-2-oxopyridin-1(2H)-yl)acetate], the half-maximal inhibitory concentration (IC50) was determined as 750 nM. On to `CNC(=O)C(=O)CC[C@H](NC(=O)c1cncn1C)C(=O)Nc1cccn(CC(=O)NCOC)c1=O` [Compound E54, (S)—N1-(1-(2-(methoxymethylamino)-2-oxoethyl)-2-oxo-1,2-dihydropyridin-3-yl)-N6-methyl-2-(1-methyl-1H-imidazole-5-carboxamido)-5-oxohexanediamide], for which the half-maximal inhibitory concentration (IC50) came to 550 nM. Turning to `CNC(=O)C(=O)CC[C@H](NC(=O)c1cncn1C)C(=O)Nc1cccn(CC(=O)NCN(C)C)c1=O` [Compound E55, (S)-N1-(1-(2-((dimethylamino)methylamino)-2-oxoethyl)-2-oxo-1,2-dihydropyridin-3-yl)-N6-methyl-2-(1-methyl-1H-imidazole-5-carboxamido)-5-oxohexanediamide], the IC50 amounted to 200 nM.

For `CCS(=O)(=O)NC(=O)Cn1cccc(NC(=O)[C@H](CCC(=O)C(=O)NC)NC(=O)c2cncn2C)c1=O` [Compound E56, (S)—N1-(1-(2-(ethylsulfonamido)-2-oxoethyl)-2-oxo-1,2-dihydropyridin-3-yl)-N6-methyl-2-(1-methyl-1H-imidazole-5-carboxamido)-5-oxohexanediamide], the IC50 was found to be 850 nM.

With `CCC(CC)CNC(=O)Cn1cccc(NC(=O)[C@H](CCC(=O)C(=O)NC)NC(=O)OC(C)(C)C)c1=O` [Compound E58, (S)-tert-butyl 1-(1-(2-(2-ethylbutylamino)-2-oxoethyl)-2-oxo-1,2-dihydropyridin-3-ylamino)-6-(methylamino)-1,5,6-trioxohexan-2-ylcarbamate], the half-inhibitory concentration (IC50) came to 280 nM.

Turning to `CCC(CC)CNC(=O)Cn1cccc(NC(=O)[C@H](CCC(=O)C(=O)NC)NC(=O)CCC(=O)O)c1=O` [Compound E59, (S)-4-(1-(1-(2-(2-ethylbutylamino)-2-oxoethyl)-2-oxo-1,2-dihydropyridin-3-ylamino)-6-(methylamino)-1,5,6-trioxohexan-2-ylamino)-4-oxobutanoic acid], the IC50 came to 625 nM. As for `CCC(CC)CNC(=O)Cn1cccc(NC(=O)[C@H](CCC(=O)C(=O)NC)NC(=O)[C@@H]2CC(=O)CN2)c1=O` [Compound E60, (S)—N1-(1-(2-(2-ethylbutylamino)-2-oxoethyl)-2-oxo-1,2-dihydropyridin-3-yl)-N6-methyl-5-oxo-2-((S)-4-oxopyrrolidine-2-carboxamido)hexanediamide], the IC50 was 60 nM. In the case of `CCC(CC)CNC(=O)Cn1cccc(NC(=O)[C@H](CCC(=O)C(=O)NC)NC(=O)c2ccoc2)c1=O` [Compound E61, (S)—N1-(1-(2-(2-ethylbutylamino)-2-oxoethyl)-2-oxo-1,2-dihydropyridin-3-yl)-2-(furan-3-carboxamido)-N6-methyl-5-oxohexanediamide], the IC50 was determined as 80 nM. In the case of `CCC(CC)CNC(=O)Cn1cccc(NC(=O)[C@H](CCC(=O)C(=O)NC)NC(=O)c2cnco2)c1=O` [Compound E62, (S)—N1-(1-(2-(2-ethylbutylamino)-2-oxoethyl)-2-oxo-1,2-dihydropyridin-3-yl)-N6-methyl-2-(oxazole-5-carboxamido)-5-oxohexanediamide], the IC50 was 70 nM. For `CCC(CC)CNC(=O)Cn1cccc(NC(=O)[C@H](CCC(=O)C(=O)NC)NC(=O)C2CCN(C)CC2)c1=O` [Compound E63, (S)—N1-(1-(2-(2-ethylbutylamino)-2-oxoethyl)-2-oxo-1,2-dihydropyridin-3-yl)-N6-methyl-2-(1-methylpiperidine-4-carboxamido)-5-oxohexanediamide], the 50% inhibitory concentration (IC50) was 80 nM.

For the compound `CCC(CC)CNC(=O)Cn1cccc(NC(=O)[C@H](CCC(=O)C(=O)NC)NC(=O)c2cncnc2)c1=O` [Compound E64, (S)—N1-(1-(2-(2-ethylbutylamino)-2-oxoethyl)-2-oxo-1,2-dihydropyridin-3-yl)-N6-methyl-5-oxo-2-(pyrimidine-5-carboxamido)hexanediamide], the concentration for half-maximal inhibition (IC50) came to 95 nM. Next, `CCC(CC)CNC(=O)Cn1cccc(NC(=O)[C@H](CCC(=O)C(=O)NC)NC(=O)c2cnc3ccccc3n2)c1=O` [Compound E65, (S)—N1-(1-(2-(2-ethylbutylamino)-2-oxoethyl)-2-oxo-1,2-dihydropyridin-3-yl)-N6-methyl-5-oxo-2-(quinoxaline-2-carboxamido)hexanediamide]: 65 nM. For `CCC(CC)CNC(=O)Cn1cccc(NC(=O)[C@H](CCC(=O)C(=O)NC)NS(=O)(=O)c2sc(C)nc2C)c1=O` [Compound E66, (S)-2-(2,4-dimethylthiazole-5-sulfonamido)-N1-(1-(2-(2-ethylbutylamino)-2-oxoethyl)-26 oxo-1,2-dihydropyridin-3-yl)-N6-methyl-5-oxohexanediamide], the IC50 turned out to be 120 nM.

Take `CCC(CC)CNC(=O)Cn1cccc(NC(=O)[C@H](CCC(=O)C(=O)NC)NS(=O)(=O)c2c(Cl)nc3sccn23)c1=O` [Compound E67, (S)-2-(6-chloroimidazo[2,1-b]thiazole-5-sulfonamido)-N1-(1-(2-(2-ethylbutylamino)-2-oxoethyl)-2-oxo-1,2-dihydropyridin-3-yl)-N6-methyl-5-oxohexanediamide]: the IC50 was 150 nM.

Broadly, the IC50 is the midpoint of a concentration-inhibition curve.
